Columns and labels:
MEF1 cells [1] = assay: Internalization (uptake) and binding of 125I-LDL by mouse embryonic fibroblasts; assay type: cell-based; details: for Enhancement of LDL uptake (in words): mouse fibroblasts, results not shown
Protocol: The binding, internalization and degradation of LDL/VLDL in fibroblasts were measured using the method of Goldstein et. al. (20). All cells were grown in DMEM medium in 6-well plates and used at 75-90% confluence was reached. The seeding density of cells used was between 1.5×10^5 and 3.0×10^5 cells/ml medium. Cells were incubated with DMEM medium containing LPDS 24 hours prior to use to upregulate LDL receptors. […] Non-specific binding was determined in the presence of 50 fold excess unlabelled LDL/VLDL with or without peptides. After washing with ice cold PBS (containing BSA 2 mg/ml), to remove excess free labeled lipoprotein, the cells were incubated with dextran sulfate (4 mg/ml, Pharmacia, Mr 500,000) or heparin (Sigma Chemical Co., 10 mg/ml) for 1 h to release spcifically bound ^125I-LDL/^125I-VLDL, and washed with cold PBS. The counts in the dextran sulfate wash reflect the amount of LDL/VLDL bound to cells.
The cells were dissolved in 0.1 N NaOH and a 0.5 ml aliquot of cell suspension was counted. These counts reflect the amount of LDL/VLDL internalized. Protein was estimated by the method of Lowry. Degradation of LDL/VLDL were studied using the protocol described above for 4° C., except that the cells were incubated at 37° C. for 5 hours. Degradation was determined by precipitating the unbound ^125I-LDL/^125I-VLDL from the medium with 50% TCA (0.5 ml of 50% TCA was added to 1 ml of medium) and incubating at 4° C. for 30 minutes (20). The precipitate was removed by centrifugation. The supernatant was treated with 10 μl of 40% potassium iodide and 40 μl of 30% hydrogen peroxide. The free ^125I liberated was extracted with 2 ml of chloroform. The upper aqueous layer (0.5 ml) was then counted. This represented the amount of ^125I-monoiodotyrosine produced by the degradation of apoB in LDL/VLDL.
(§1) Heparinase and heparitinase treatment of cells was carried out as follows. The cells were treated with heparinase and heparitinase (Sigma Chemical Co.) at a concentration of 3 U/ml of media for 2 hours at 37° C. These experiments were carried out using human and mouse fibroblasts as well as HepG2 cells. Mouse embryonic fibroblasts (MEF1), the LRP deficient mutant (PEA13) and the LRP/LDL double mutant (MEF4) were (obtained from ATCC ) used to identify the possible mechanism involved. In all the cell experiments, the average value of triplicates was used.
The effect of the peptide was studied in two ways: (a) the peptide was added to the cell media directly after adding LDL and (b) it was first incubated with LDL for 1 h at room temperature and the coincubated mixture was added to the cells after filtering through a 0.221μ filter. The peptide-LDL “complex” or modified LDL appears to enhance the uptake of ^125I-LDL much more than the peptide by itself (results not shown). […]

HepG2 cells [2] = assay: Uptake of 125I-VLDL-peptide complex by HepG2 cells; assay type: cell-based
[3] = Circular dichroic spectrometry, percent helicity of peptides; assay type: physicochemical; details: for Percent Helicity, Peptide: peptide alone, 100 μM in PBS, pH 7.4, 25° C.; for Percent Helicity, Peptide/DMPC (1:20): peptide-DMPC complex 1:20 m/m
Protocol: Circular dichroic spectra were recorded on a signal averaging AVIV 62DS spectropolarimeter as described earlier (18). Briefly, circular dichroic spectra were obtained at 25° C. by signal averaging of four scans recorded every nm from 260 nm to 190 nm using a cell with a 0.01 cm path length Peptide concentrations in PBS, pH 7.4, used were 100 μM. Peptide-DMPC complexes (1:20 m/m) were prepared as described (18) and the change in peptide helicity upon lipid association measured. The helical content of the peptides was estimated from the mean residue ellipticity, [θ]MRE (deg.cm^2.dmol^−1) at 222 nm using the equations as detailed by Morrisett et al.(23).

MEF1 cells [4] = assay: Effect of heparinase/heparitinase treatment of cells on peptide-mediated LDL internalization; assay type: cell-based, mouse; details: heparinase and heparitinase 0.5 units each/ml
Protocol: MEF1 cells were pretreated with heparinase/heparitinase(3U/ml) for 2 hours at 37° C. and then incubated with ^1251I-LDL-peptide for 2 hours at 37° C. The black bars represent internalization without heparinase/heparitinase treatment while the speckled bars represent internalization after pretreatment with heparinase/heparitinase.
as §1
A possible high capacity, low affinity pathway has been previously identified for lipoprotein binding and uptake. Heparan sulfate proteoglycans (HSPG) bind and take up apo E-enriched lipoproteins (27). […] These apo E mimicking peptides could modify LDL and be taken up through heparan sulfate proteoglycans. Therefore, the cells were treated with heparinase and heparitinase (0.5 units each/ml).

HepG2 cells [5] = assay: Degradation of 125I-VLDL-peptide complex by HepG2 cells; assay type: cell-based
Protocol: […] was used as a control. ^125I-VLDL was incubated with Ac-hE18A-NH2 (1:1 w/w) and reisolated by density centrifugation. The peptide bound to ^125I-VLDL floated to the top while the unbound peptide was at the bottom. The ^125I-VLDL-peptide complex was used to determine the effect of the peptide on the uptake and degradation of ^125I-VLDL. The first bar: ^125I-VLDL alone; the second bar: ^125VLDL-Ac-18A-NH2 (1:1 w/w); the third bar: VLDL-Ac-hE18A-NH2 (1:1 w/w). The data represent an average of triplicate values.
The binding, internalization and degradation of LDL/VLDL in fibroblasts were measured using the method of Goldstein et. al. (20). All cells were grown in DMEM medium in 6-well plates and used at 75-90% confluence was reached. The seeding density of cells used was between 1.5×10^5 and 3.0×10^5 cells/ml medium. Cells were incubated with DMEM medium containing LPDS 24 hours prior to use to upregulate LDL receptors. […] Non-specific binding was determined in the presence of 50 fold excess unlabelled LDL/VLDL with or without peptides. […]
The cells were dissolved in 0.1 N NaOH and a 0.5 ml aliquot of cell suspension was counted. […] Degradation was determined by precipitating the unbound ^125I-LDL/^125I-VLDL from the medium with 50% TCA (0.5 ml of 50% TCA was added to 1 ml of medium) and incubating at 4° C. for 30 minutes (20). […] The upper aqueous layer (0.5 ml) was then counted. […]

[6] = system: apo E-gene knock out mice; assay: Intravenous administration of peptide, plasma cholesterol (CLiP); assay type: in vivo, mouse
Protocol: Female apo E knockout mice were injected through the tail vein with ^125I-Ac-hE18A-NH2 (50 μg in 100 μl PBS). Blood samples were taken by retro-orbital bleeding at baseline (0 h) and at 2 minutes and 6 hours following injection. Success of injection was determined by measuring radioactivity in the 2 minutes sample and calculating total plasma peptide by specific radioactivity of the peptide, assuming total plasma volume=4.2% of body weight.
50 μg of the ^125I-labeled peptide was injected into the tail vein into female apo E-gene knock out mice. Blood was drawn by retro-orbital bleeding immediately before injection (time 0), and at two minutes and 6 hours following the injection. Success of injections was determined by measuring the plasma radioactivity in the two minute sample; the total plasma peptide at two minutes was determined from the specific activity of the injected peptide and the radioactivity present in the plasma. Total plasma volume was assumed to be 4.2% of body weight. Plasma cholesterol profiles were determined on 5 μl of 0 h and 6 h samples by the CLiP method.
CLiP were determined using a modification of a previously described method for the semi-automated cholesterol profiling of lipoproteins by column chromatography (31). The apparatus consisted of two biocompatible HPLC pumps, an injector Pharmacia), a post-column reactor, a 30×1 cm Superose 6 column, and a spectrophotometric detector reading at 500 nm. Plasma samples were injected onto the Superose 6 column. Immediately after the column, cholesterol reagent (Cholesterol 1000, Pharmacia) was mixed with the column eluent through a low-dead-volume mixing tee, and the mixture entered a heating block (set at […]). Outflow from the heating block entered the spectrophotometric detector, and the cholesterol profile was collected through an A/D board and the digitized profile stored in a computer.
To determine the effect of peptide Ac-hE18A-NH2 in clearing the plasma cholesterol, 14 μg to 33 μg of the peptide were administered into six apo E(-/-) animals. In every case, the plasma cholesterol levels decreased. […]

[7] = apo E(-/-) mice, intravenous, 6 hours

## Ac-18A-NH2: control peptide, end protected class A amphipathic helical peptide 18A [reference compound]
MEF1 cells [1]
  Enhancement of LDL uptake (in words): did not enhance LDL uptake
HepG2 cells [2]; VLDL-peptide 1:1 w/w
  Uptake of VLDL by HepG2 cells (in words): does not increase uptake of VLDL

## LRRLRRRLLR-18A (an analog of human apolipoprotein E receptor binding domain) [hE-(R)18A, analog of hE-18A with Lys replaced by Arg]
[3]
  Percent Helicity, Peptide: 51.2%
  Percent Helicity, Peptide/DMPC (1:20): 70.8%
[3]; listed as hE(R)18A
  Percent Helicity, Peptide: ~50%

## LRKLRKRLLR [reference compound]
MEF1 cells [1]
  Enhancement of LDL uptake (in words): did not enhance LDL uptake

## LRKMRKRLMR-18A (DOMAIN 133..142 mouse apolipoprotein E receptor binding domain; listed as Mus sp.) [mE-18A]
[3]
  Percent Helicity, Peptide: 36.3%
  Percent Helicity, Peptide/DMPC (1:20): 44.0%
[3]; listed as mE18A
  Percent Helicity, Peptide: 36%

## LRKLRKRLLR-18A (LRKLRKRLLRDWLKAFYDKVAEKLKEAF) [hE-18A, 141-150 region of human apo E linked to class A amphipathic helical peptide 18A]
[3]
  Percent Helicity, Peptide: 36.0%
  Percent Helicity, Peptide/DMPC (1:20): 46.0%
[3]; listed as hE18A
  Percent Helicity, Peptide: 36%

## Ac-hE18A-NH2: end protected analog of hE18A (acetyl and amino groups) (Ac-LRKLRKRLLRDWLKAFYDKVAEKLKEAF-NH2)
MEF1 cells [4]
  Reduction of uptake of peptide treated LDL by heparinase/heparitinase: ~50%
HepG2 cells [5]; VLDL-peptide 1:1 w/w, versus control
  Enhancement of degradation of VLDL by HepG2 cells: three
HepG2 cells [5]; peptide-associated VLDL
  Enhancement of degradation of VLDL compared to VLDL alone: three
[3]
  Percent Helicity, Peptide: 69.3%
  Percent Helicity, Peptide/DMPC (1:20): 74.3%
MEF1 cells [1]; 10 μg peptide, LDL 10 μg, versus corresponding unprotected peptide
  Effectiveness in LDL internalization of protected peptide relative to free peptide: 5 times
MEF1 cells [1]; MEF1 cells with induced LDL receptors, 125I-LDL 10 μg + peptide 10 μg, 2 hours at 37° C.
  Enhancement of LDL internalization: five
HepG2 cells [2]; peptide-associated VLDL
  Enhancement of uptake of VLDL compared to VLDL alone: six
[6]; FIG. 10B, plasma cholesterol profile at 6 hours vs baseline, single animal
  Reduction of total cholesterol: > 50%
[6]; [7]
  HDL cholesterol: unchanged
  VLDL and LDL cholesterol levels: lowered
